From ChEMBL document CHEMBL2074295, “Molecular identification of the corticosterone-sensitive extraneuronal catecholamine transporter” (Nat Neurosci, 1998)

T1: Solute carrier family 22 member 3 (Homo sapiens, UniProt O75751)
T1 sequence (O75751 whole entry): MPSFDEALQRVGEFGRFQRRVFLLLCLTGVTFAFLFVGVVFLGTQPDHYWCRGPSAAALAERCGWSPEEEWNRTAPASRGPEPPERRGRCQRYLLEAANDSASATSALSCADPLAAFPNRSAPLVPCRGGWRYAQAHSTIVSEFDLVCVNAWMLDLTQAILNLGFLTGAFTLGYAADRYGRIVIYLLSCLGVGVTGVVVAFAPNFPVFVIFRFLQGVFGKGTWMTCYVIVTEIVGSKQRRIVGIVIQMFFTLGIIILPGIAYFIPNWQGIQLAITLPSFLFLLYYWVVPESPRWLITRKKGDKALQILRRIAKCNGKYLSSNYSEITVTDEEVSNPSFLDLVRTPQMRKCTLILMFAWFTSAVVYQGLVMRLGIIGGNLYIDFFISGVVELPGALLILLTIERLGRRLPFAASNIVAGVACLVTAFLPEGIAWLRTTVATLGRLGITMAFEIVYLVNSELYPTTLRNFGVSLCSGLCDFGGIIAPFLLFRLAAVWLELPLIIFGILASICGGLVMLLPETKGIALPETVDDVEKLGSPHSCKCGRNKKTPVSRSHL


Experiments:
Type in all cases: functional, cell-based
[1] = molecular target: T1, Solute carrier family 22 member 3; experiment: (§1) TP_TRANSPORTER: uptake in OCT3-expressing HEK293 cells
[2] = molecular target: T1, Solute carrier family 22 member 3; experiment: TP_TRANSPORTER: inhibition of MPP+ uptake in OCT3-expressing HEK293 cells
[3] = substrate: NC[C@H](O)c1ccc(O)c(O)c1; experiment: as §1

| Molecule | Activity [1] | further results |
| --- | --- | --- |
| C[n+]1ccc(-c2ccccc2)cc1 | substrate [+] |  |
| Nc1ncnc2c1ncn2CCOCP(=O)(O)O [ADEFOVIR] | substrate [+] |  |
| COc1cc2c(c(OC)c1OC)-c1ccc(OC)c(=O)cc1[C@@H](NC(C)=O)CC2 [COLCHICINE] |  | Ki [2]: 120 nM |
| CC(C)N1/C(=C\c2cc[n+](C(C)C)c3ccccc23)C=Cc2ccccc21 [DISPROCYNIUM24] |  | Ki [2]: 15 nM |
| NCCc1c[nH]c2ccc(O)cc12 [SEROTONIN] | substrate [+] |  |
| NCCc1ccc(O)cc1 [TYRAMINE] | substrate [+] |  |
| Solute carrier family 22 member 3 (Homo sapiens) (protein) MPSFDEALQRVGEFGRFQRRVFLLLCLTGVTFAFLFVGVVFLGTQPDHYWCRGPSAAALAERCGWSPEEEWNRTAPASRGPEPPERRGRCQRYLLEAANDSASATSALSCADPLAAFPNRSAPLVPCRGGWRYAQAHSTIVSEFDLVCVNAWMLDLTQAILNLGFLTGAFTLGYAADRYGRIVIYLLSCLGVGVTGVVVAFAPNFPVFVIFRFLQGVFGKGTWMTCYVIVTEIVGSKQRRIVGIVIQMFFTLGIIILPGIAYFIPNWQGIQLAITLPSFLFLLYYWVVPESPRWLITRKKGDKALQILRRIAKCNGKYLSSNYSEITVTDEEVSNPSFLDLVRTPQMRKCTLILMFAWFTSAVVYQGLVMRLGIIGGNLYIDFFISGVVELPGALLILLTIERLGRRLPFAASNIVAGVACLVTAFLPEGIAWLRTTVATLGRLGITMAFEIVYLVNSELYPTTLRNFGVSLCSGLCDFGGIIAPFLLFRLAAVWLELPLIIFGILASICGGLVMLLPETKGIALPETVDDVEKLGSPHSCKCGRNKKTPVSRSHL |  | Km [3]: 510 µM |
